For orientation: IC50 means the concentration at which inhibition is half-maximal.

These results are taken from article PMC3658936, “Comparison of cyclic RGD peptides for αvβ3 integrin detection in a rat model of myocardial infarction” (EJNMMI Research, 2013).

Like-named read-outs stand apart in the source and are kept apart here.

For data set [1], the system named is αvβ3 integrin. Description: in vivo. To be noted: for tissue uptake per volume at 1.375 h: male, Lewis, in vivo, iv, total radioactivity. The method, then: Permanent ligation of the left anterior descending coronary artery was performed, as previously described in 34 healthy male Lewis rats (Charles Rivers Laboratories, Sulzfeld, Germany) aged 8 to 10 weeks to induce MI. Briefly, the rats were anaesthetised with intramuscular administration of midazolam 5 mg/kg (Dormicum®, Roche; Grenzach-Wyhlen, Germany), medetomidin 0.5 mg/kg (Dormitor®, Pfizer, Karlsruhe, Germany) and fentanyl 0.05 mg/kg (Ratiopharm, Ulm, Germany) and connected to a rodent ventilator. The heart was exposed through a left lateral thoracotomy of the fourth intercostal space, and the left anterior descending (LAD) artery was ligated near to its origin (2 to 3 mm from the tip of the left atrium). Two rats underwent sham operation, which consisted of the same procedures except that the LAD artery suture was not tightened. The rats were treated with 0.05 mg/kg buprenorphin (Temgesic®, Essex, Germany) and 4 mg/kg carprofen (Rimadyl, Pfizer, Germany) for 72 h post surgery. The study protocols were approved by the regional governmental commission for animal protection (Regierung von Oberbayern, Munich, Germany).
A subset of animals (n = 7) was imaged using a small-animal PET/CT scanner (Inveon, Siemens Medical Solutions, Knoxville, TN, USA). The rats were anaesthetised using 1.5% isoflurane. Breathing was monitored and temperature was maintained using a heating pad throughout the imaging procedures. The rats were injected with 37 MBq of [^13N]NH3 via tail a vein catheter, and perfusion images were acquired for 15 min starting at the time of injection. A CT scan was performed for anatomical localisation. The animals were left anaesthetised in the scanner, and 60 min later, the animals were injected with either ^68Ga-NODAGA-RGD (72 MBq, n = 4) or ^68Ga-TRAP(RGD)3 (63 MBq, n = 3) via the tail vein. […]
The ^68Ga- and ^13N-PET images were fused, and the uptake was visualised using the Inveon Research Workplace (Siemens, Knoxville, TN, USA). […] The mean radioactivity concentration within the ROI was expressed as the percentage of injected dose per cubic centimetre (% ID/cc).

A short description of data set [2]: Ex vivo biodistribution in tissues by gamma counting. Also on record: species or system rat. As to conditions: for tissue uptake at 1.5 h: Lewis, rat, in vivo, total radioactivity. How it is done: Rats were anesthetised using 1.5% isoflurane and were injected via tail vein catheter with ^18F-galacto-RGD (37 MBq, n = 9), ^68Ga-NODAGA-RGD (69 MBq, n = 10) or of ^68Ga-TRAP(RGD)3 (54 MBq, n = 12). Rats were kept under anaesthesia in a warmed bed until euthanized after 90 min using intravenous injection of 150 mg/kg of pentobarbiturate (Narcoren®, Merial, Rohrdorf, Germany). The heart was excised and cut transaxially at the location of the infarct. The apical part, containing both infarct and non-affected remote myocardium, was processed for sectioning for autoradiography as described below.
Tissue samples (remote myocardium, apical part of myocardium, femoral muscle, operation wound and the connective tissue contralateral to the wound, spleen, liver, kidney, urine and blood) were dissected, and the weights of the tissue, urine, blood and serum samples were measured and their activity was detected using a gamma counter (1480 Wizard, PerkinElmer Wallac, Turku, Finland).

Data set [3] concerns αvβ3 integrin. Description: Ex vivo autoradiography of RGD tracer uptake in the myocardium (infarct vs. remote). As to conditions: rat MI 1 week after LAD ligation, 90 min p.i., mean ± SD. How it is done: Permanent ligation of the left anterior descending coronary artery was performed, as previously described in 34 healthy male Lewis rats (Charles Rivers Laboratories, Sulzfeld, Germany) aged 8 to 10 weeks to induce MI. Briefly, the rats were anaesthetised with intramuscular administration of midazolam 5 mg/kg (Dormicum®, Roche; Grenzach-Wyhlen, Germany), medetomidin 0.5 mg/kg (Dormitor®, Pfizer, Karlsruhe, Germany) and fentanyl 0.05 mg/kg (Ratiopharm, Ulm, Germany) and connected to a rodent ventilator. […]
The excised hearts were frozen and embedded in Tissue Tek® mounting media (Sakura Finetek Europe B.V., Alphen aan den Rijn, the Netherlands). […] After an overnight exposure, the imaging plates were scanned with an image plate scanner (CR 35 BIO, Dürr Medical, Raytest Isotopenmeßgeräte GmbH, Germany; internal resolution of 25 μm), and the images were analysed for background-corrected count densities (PSL/mm^2) with an image analysis programme (AIDA Image Analyser, Raytest Isotopenmeßgeräte, Germany). […]
(§1) After careful co-registration of the autoradiographs and HE histological images, regional tracer uptake was analysed in the following two regions: (1) the infarcted myocardium containing the border zone as assessed after HE staining and (2) the remote, non-affected myocardium. […]

The subject of data set [4] is αvβ3 integrin. Set-up: method as in PMID 22147338, PMID 22444238. As to conditions: competitive displacement assay on M21 human melanoma cells; cited from earlier work.
In data set [5] the test system is αvβ3 integrin. The data set is described as follows: Specificity of RGD binding: pre-injection of a blocking dose of cilengitide, autoradiography. In kind it is in vivo, rat. To be noted: cilengitide 18 mg/kg 10 min prior to tracer injection. How it is done: The specificity of the RGD binding was studied on three rats with pre-injection of a blocking dose of cilengitide (18 mg/kg = 30.6 μmol/kg) 10 min prior to the tracer injection.
The excised hearts were frozen and embedded in Tissue Tek® mounting media (Sakura Finetek Europe B.V., Alphen aan den Rijn, the Netherlands). Serial LV short-axis cryosections of 20-μm thickness were obtained. Similar sections of muscle and spleen samples of the same rat were processed and used as negative and positive controls. After quick air drying, the sections were exposed to an imaging plate (Kodak Storage Phosphor screen GP, Eastman Kodak Company, Rochester, NY, USA). After an overnight exposure, the imaging plates were scanned with an image plate scanner (CR 35 BIO, Dürr Medical, Raytest Isotopenmeßgeräte GmbH, Germany; internal resolution of 25 μm), and the images were analysed for background-corrected count densities (PSL/mm^2) with an image analysis programme (AIDA Image Analyser, Raytest Isotopenmeßgeräte, Germany). […]
as §1

As to `N=C(N)NCCC[C@@H]1NC(=O)[C@H](CCCCNC(=O)CCC(C(=O)O)N2CCN(CC(=O)O)CCN(CC(=O)O)CC2)NC(=O)[C@@H](Cc2ccc(O)cc2)NC(=O)[C@H](CC(=O)O)NC(=O)CNC1=O` (stereo partly shown) [^68Ga-NODAGA-RGD, ^68Ga-NODAGA-cyclo(RGDyK), metal not drawn], the tissue uptake per volume at 1.375 h in data set [1] (rat) is 0.17 ± 0.03 %ID/mL. The tissue uptake at 1.5 h in data set [2] (Biodistribution: Apical myocardium) stood at 0.156 ± 0.06 %ID/g; in data set [2] (Biodistribution: Blood), 0.058 ± 0.02 %ID/g; in data set [2] (Biodistribution: Connective tissue) it was 0.11 ± 0.05 %ID/g; in data set [2] (Biodistribution: Kidney) it was 1.1 ± 0.7 %ID/g; in data set [2] (Biodistribution: Liver), 0.23 ± 0.17 %ID/g; in data set [2] (Biodistribution: Muscle), 0.035 ± 0.01 %ID/g. For the same compound, the tissue uptake at 1.5 h in data set [2] (Biodistribution: Remote myocardium) amounted to 0.071 ± 0.03 %ID/g; in data set [2] (Biodistribution: Serum) it was 0.094 ± 0.05 %ID/g; in data set [2] (Biodistribution: Spleen), 0.246 ± 0.16 %ID/g; in data set [2] (Biodistribution: Urine), 20.2 ± 6.4 %ID/g; in data set [2] (Biodistribution: Wound), 0.27 ± 0.24 %ID/g.

Regarding `N=C(N)NCCC[C@@H]1NC(=O)[C@H](CCCCNC(=O)CCP(=O)(O)CN2CCN(CP(=O)(O)CCC(=O)NCCCC[C@@H]3NC(=O)[C@@H](Cc4ccccc4)NC(=O)[C@H](CC(=O)O)NC(=O)CNC(=O)[C@H](CCCNC(=N)N)NC3=O)CCN(CP(=O)(O)CCC(=O)NCCCC[C@@H]3NC(=O)[C@@H](Cc4ccccc4)NC(=O)[C@H](CC(=O)O)NC(=O)CNC(=O)[C@H](CCCNC(=N)N)NC3=O)CC2)NC(=O)[C@@H](Cc2ccccc2)NC(=O)[C@H](CC(=O)O)NC(=O)CNC1=O` [^68Ga-TRAP(RGD)3, ^68Ga-TRAP(cyclo(RGDfK))3, metal not drawn], the “infarct vs. remote PSL/mm2 uptake ratio” value in data set [3] is on record as 4.1 ± 0.7. The “infarct-to-remote ratio (PET)” value in data set [1] (PET image-derived, rat MI 1 week) is on record as 1.9. For the same compound, the tissue uptake per volume at 1.375 h in data set [1] (PET, 82.5 min after injection, rat MI 1 week, read-out: image-derived average uptake in the myocardium, infarct area) is 0.25 ± 0.02 %ID/mL. Besides, the tissue uptake at 1.5 h in data set [2] (90 min p.i., mean ± SD, contains both infarct and remote areas, read-out: Biodistribution: Apical myocardium) came out at 0.353 ± 0.1 %ID/g; in data set [2] (90 min p.i., mean ± SD, contralateral to the wound, read-out: Biodistribution: Connective tissue), 0.19 ± 0.08 %ID/g; in data set [2] (90 min p.i., mean ± SD, read-out: Biodistribution: Blood), 0.101 ± 0.07 %ID/g; in data set [2] (90 min p.i., mean ± SD, read-out: Biodistribution: Kidney) it was 1.45 ± 0.51 %ID/g; in data set [2] (90 min p.i., mean ± SD, read-out: Biodistribution: Liver), 0.524 ± 0.61 %ID/g; in data set [2] (90 min p.i., mean ± SD, read-out: Biodistribution: Muscle) it was 0.066 ± 0.03 %ID/g. Further, the tissue uptake at 1.5 h in data set [2] (90 min p.i., mean ± SD, read-out: Biodistribution: Remote myocardium) amounted to 0.154 ± 0.09 %ID/g; in data set [2] (90 min p.i., mean ± SD, read-out: Biodistribution: Serum), 0.166 ± 0.12 %ID/g; in data set [2] (90 min p.i., mean ± SD, read-out: Biodistribution: Spleen) it was 0.415 ± 0.3 %ID/g; in data set [2] (90 min p.i., mean ± SD, read-out: Biodistribution: Urine), 35.1 ± 22.4 %ID/g; in data set [2] (90 min p.i., mean ± SD, read-out: Biodistribution: Wound) it was 0.256 ± 0.12 %ID/g. Moreover, the apical-to-remote ratio in data set [2] (gamma counting, apical part vs. remote myocardium tissue sample) is recorded as 2.1. The half-inhibitory concentration (IC50) in data set [4] is 0.044 µM.

Consider “^18F-galacto-cyclo(RGDfK) [^18F-galacto-RGD, reference compound]”, for which the “infarct vs. remote PSL/mm2 uptake ratio” value in data set [3] amounted to 4.7 ± 0.8. Moreover, the IC50 in data set [4] was 0.319 µM.

As to cilengitide, the “effect of pre-injection of high-dose cilengitide on tracer uptake” value in data set [5] is “reduced the uptake in the myocardium and also in the spleen”.
